Among the test systems are IGROV-1; NCI/ADR-RES; SF-295; HOP-92; HL-60; NCI-H460; RXF 393; Hs-578T; A498; MCF7; MDA-MB-231; Malme-3M; M14; SK-MEL-28; SNB-75; UACC-257; 786-0; HT-29; CCRF-CEM; DLD-1.
Holding throughout (test): NCI anticancer screen, dose series, 48 h

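96-well plates; 48 h exposure; 5 concentrations. Endpoints by linear interpolation between flanking doses. Not reached: highest tested concentration assigned. At the GI50, growth is halved.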 Calls of active or inactive are those of the source. Rule as the data show it: active = GI50 up to about 1.1 µM and inactive = higher.

Turning to `CC(=O)Oc1ccc(C2SCc3nc4ccccc4n32)cc1` (centres undefined), the GI50 with IGROV-1 was 30.7 µM (inactive); in the assay on NCI/ADR-RES it was 14.8 µM (inactive); in the assay with SF-295 it was 21.7 µM (inactive); in the assay on HOP-92 it was 25.2 µM (inactive); in the assay on HL-60, 10.6 µM (inactive); in the assay with NCI-H460, 41.1 µM (inactive). Also, the GI50 was 24.2 µM (inactive) in the assay on RXF 393; 32.5 µM (inactive) with Hs-578T; 27.2 µM (inactive) in the assay on A498; 8 µM (inactive) in the assay with MCF7; 27.4 µM (inactive) with MDA-MB-231; 30.2 µM (inactive) in the assay on Malme-3M. Also, the GI50 in the assay with M14 was 48.6 µM (inactive); with SK-MEL-28 it was 52.7 µM (inactive); in the assay with SNB-75 it was 19.9 µM (inactive); with UACC-257, 33.5 µM (inactive); with 786-0, 39.4 µM (inactive); with HT-29, 23.3 µM (inactive). In addition, in the assay with CCRF-CEM, the GI50 is 26.5 µM (inactive).
For the compound `Cc1ccc2nc3cc(C)c(=O)cc-3sc2c1`, the GI50 in the assay on IGROV-1 was > 100 µM (inactive); with SF-295, 94.2 µM (inactive); in the assay on HOP-92 it was > 100 µM (inactive); in the assay on HL-60 it was 3.11 µM (inactive); with NCI-H460, > 100 µM (inactive); in the assay on Malme-3M it was > 100 µM (inactive). For the same compound, the GI50 was > 100 µM (inactive) in the assay with DLD-1; > 100 µM (inactive) with M14; > 100 µM (inactive) with SK-MEL-28; 18.7 µM (inactive) with SNB-75; 54.6 µM (inactive) in the assay on UACC-257; > 100 µM (inactive) in the assay on 786-0. The results for the GI50 in the assay on HT-29 and in the assay on CCRF-CEM were > 100 µM (inactive) and 8.95 µM (inactive), respectively.
On to `Cc1cc(C)nc(SCC(=O)OC2CC(C)CCC2C(C)C)n1` (centres undefined), for which the GI50 was 20.6 µM (inactive) with IGROV-1; 17 µM (inactive) in the assay on NCI/ADR-RES; 14.6 µM (inactive) in the assay on SF-295; 26 µM (inactive) in the assay with HOP-92; 19.1 µM (inactive) in the assay with HL-60; 18.8 µM (inactive) in the assay with NCI-H460. For the same compound, the GI50 in the assay on RXF 393 is 16.8 µM (inactive); in the assay with Hs-578T, 33.4 µM (inactive); in the assay with A498, 18.1 µM (inactive); in the assay on MCF7 it was 23.3 µM (inactive); with MDA-MB-231, 17.9 µM (inactive); in the assay with Malme-3M it was 21.6 µM (inactive). Besides, the GI50 in the assay on M14 was 16.7 µM (inactive); in the assay with SK-MEL-28, 26 µM (inactive); in the assay on SNB-75 it was 21 µM (inactive); in the assay on UACC-257, 19.6 µM (inactive); in the assay with 786-0, 21.6 µM (inactive); in the assay on HT-29, 16.4 µM (inactive). In the assay on CCRF-CEM, the GI50 is 16.6 µM (inactive).
In the case of `Fc1ccc2c3c([nH]c2c1)CCN(Cc1ccccc1)C3`, the GI50 was 20.7 µM (inactive) with IGROV-1; 28.1 µM (inactive) in the assay on NCI/ADR-RES; 14.7 µM (inactive) with SF-295; 5.33 µM (inactive) in the assay on HOP-92; 17.3 µM (inactive) in the assay with HL-60; 17.3 µM (inactive) with NCI-H460. Also, the GI50 was 16 µM (inactive) with RXF 393; 12 µM (inactive) with Hs-578T; 17.8 µM (inactive) in the assay with A498; 16.7 µM (inactive) in the assay on MCF7; 24.3 µM (inactive) in the assay with MDA-MB-231; 18.4 µM (inactive) with Malme-3M. Also, the GI50 with M14 is 17.3 µM (inactive); with SK-MEL-28, 16.7 µM (inactive); with SNB-75, 16.9 µM (inactive); in the assay on UACC-257, 15.3 µM (inactive); in the assay with 786-0 it was 16.1 µM (inactive); in the assay on HT-29, 20.4 µM (inactive). Moreover, the GI50 with CCRF-CEM was 30.4 µM (inactive).
For the compound `CC[C@@H]1/C=C/C=C/C[C@H](C)[C@@H](O)[C@@H](C)C(=O)[C@H](C)[C@@H](O)[C@H](C)C(=O)[C@H](C)[C@@H](O)[C@H](C)/C=C/C(=O)O[C@H]2[C@@H](C)[C@@H](CC1)O[C@@]1(CC[C@@H](C)[C@@H](CC(C)O)O1)[C@@H]2C` (some centres undefined), the GI50 with IGROV-1 is 4.48 µM (inactive); in the assay with NCI/ADR-RES, 0.596 µM (active); in the assay on SF-295 it was < 0.0025 µM (active); in the assay on HOP-92, 3.25 µM (inactive); with HL-60, 0.00847 µM (active); in the assay with NCI-H460, 2.17 µM (inactive). Also, the GI50 is 3.07 µM (inactive) in the assay on RXF 393; 6.03 µM (inactive) in the assay on Hs-578T; 0.0989 µM (active) with A498; 0.00269 µM (active) in the assay on MCF7; 4.35 µM (inactive) in the assay with MDA-MB-231; 6.34 µM (inactive) in the assay with Malme-3M. The GI50 in the assay with M14 was 2.47 µM (inactive); in the assay with SK-MEL-28 it was 10.6 µM (inactive); with SNB-75, 0.253 µM (active); in the assay on UACC-257 it was < 0.0025 µM (active); in the assay on 786-0, 5.9 µM (inactive); in the assay with HT-29, 2.94 µM (inactive). In the assay on CCRF-CEM, the GI50 was 1.75 µM (inactive).
Take `O=C(NCCSSCCNC(=O)/C(Cc1ccc(O)c(Br)c1)=N/O)/C(Cc1ccc(O)c(Br)c1)=N/O` [PSAMMAPLIN A]: the GI50 in the assay on IGROV-1 is 1.17 µM (inactive); in the assay on NCI/ADR-RES, 1.29 µM (inactive); in the assay on SF-295, 1.34 µM (inactive); in the assay on HOP-92 it was 4.01 µM (inactive); in the assay on HL-60, 0.426 µM (active); in the assay with NCI-H460, 0.902 µM (active). The GI50 with RXF 393 is 0.796 µM (active); with Hs-578T, 1.77 µM (inactive); in the assay on A498, 2.9 µM (inactive); in the assay with MCF7 it was 2.02 µM (inactive); in the assay with MDA-MB-231 it was 1.78 µM (inactive); in the assay with Malme-3M, 0.597 µM (active). Further, the GI50 in the assay on M14 is 1.32 µM (inactive); in the assay with SK-MEL-28, 3.16 µM (inactive); in the assay on SNB-75, 0.889 µM (active); in the assay on UACC-257 it was 1.6 µM (inactive); in the assay on 786-0 it was 2.07 µM (inactive); in the assay with HT-29, 1.35 µM (inactive). In the assay with CCRF-CEM, the GI50 was 0.377 µM (active).
Regarding `Nc1ncn(C2OC(COP(=O)(O)O)C(O)C2O)c(=O)n1` (centres undefined), the GI50 was > 100 µM (inactive) in the assay on IGROV-1; > 100 µM (inactive) with NCI/ADR-RES; > 100 µM (inactive) in the assay with SF-295; > 100 µM (inactive) in the assay with HOP-92; > 64.4 µM (inactive) in the assay with HL-60; 52.8 µM (inactive) in the assay on NCI-H460. In addition, the GI50 is > 100 µM (inactive) in the assay on RXF 393; > 100 µM (inactive) in the assay on Hs-578T; > 100 µM (inactive) in the assay with A498; > 71 µM (inactive) in the assay on MCF7; > 100 µM (inactive) with MDA-MB-231; > 81.8 µM (inactive) in the assay on Malme-3M. Also, the GI50 is > 100 µM (inactive) in the assay with M14; > 100 µM (inactive) in the assay with SK-MEL-28; > 100 µM (inactive) in the assay with SNB-75; > 100 µM (inactive) in the assay with UACC-257; > 86.3 µM (inactive) in the assay with 786-0; > 100 µM (inactive) with HT-29. For the same compound, the GI50 in the assay with CCRF-CEM was 1.87 µM (inactive).
On to `Nc1nc(Cl)cc(NCC2(CO)CC(CCc3ccccc3)C2)n1` (centres undefined), for which the GI50 is > 100 µM (inactive) in the assay on IGROV-1; 4.14 µM (inactive) with NCI/ADR-RES; 5.9 µM (inactive) with SF-295; > 28.8 µM (inactive) in the assay with HOP-92; 3.44 µM (inactive) in the assay with HL-60; 22.3 µM (inactive) with NCI-H460. The GI50 was 24.1 µM (inactive) with RXF 393; > 59.4 µM (inactive) with Hs-578T; > 100 µM (inactive) in the assay with A498; 9.16 µM (inactive) in the assay with MCF7; > 81.1 µM (inactive) in the assay with MDA-MB-231; > 100 µM (inactive) with Malme-3M. Moreover, the GI50 with M14 is > 100 µM (inactive); in the assay on SK-MEL-28 it was > 100 µM (inactive); with SNB-75, 20.3 µM (inactive); in the assay with UACC-257, 0.461 µM (active); in the assay with 786-0, > 71.8 µM (inactive); in the assay with HT-29, > 46 µM (inactive). Also, the GI50 in the assay with CCRF-CEM is > 58.9 µM (inactive).
Regarding `COP(=O)(OC)/C(=N\Nc1ccc([N+](=O)[O-])cc1)NCc1ccccc1`, the GI50 is 30.8 µM (inactive) in the assay on IGROV-1; 25.8 µM (inactive) in the assay with SF-295; 18.8 µM (inactive) with HOP-92; 21.2 µM (inactive) in the assay on HL-60; 27.8 µM (inactive) with NCI-H460; 38.5 µM (inactive) with Malme-3M. Further, the GI50 is 33.3 µM (inactive) with DLD-1; 21.4 µM (inactive) with M14; 30.8 µM (inactive) in the assay on SK-MEL-28; 11.2 µM (inactive) in the assay on SNB-75; 21.8 µM (inactive) in the assay on UACC-257; 34.3 µM (inactive) in the assay on 786-0. Moreover, the GI50 in the assay with HT-29 was 43.3 µM (inactive); in the assay with CCRF-CEM it was 20.6 µM (inactive).
Regarding `O=C1C(NCCc2ccc(O)c(O)c2)=CC(=O)c2ncccc21`, the GI50 with IGROV-1 was 9.53 µM (inactive); in the assay on NCI/ADR-RES, 14.4 µM (inactive); with SF-295, 12.6 µM (inactive); in the assay with HOP-92 it was 20.1 µM (inactive); in the assay with HL-60 it was 15.8 µM (inactive); with NCI-H460, 9.46 µM (inactive). The GI50 is 13.8 µM (inactive) in the assay with RXF 393; 5.82 µM (inactive) in the assay with Hs-578T; 20.7 µM (inactive) in the assay on A498; 4.02 µM (inactive) in the assay with MCF7; 5.14 µM (inactive) with MDA-MB-231; 4.95 µM (inactive) in the assay on Malme-3M. Moreover, the GI50 was 14.7 µM (inactive) with M14; 11.8 µM (inactive) with SK-MEL-28; 5.96 µM (inactive) in the assay on SNB-75; 5.36 µM (inactive) in the assay with UACC-257; 15.3 µM (inactive) in the assay with 786-0; 30.3 µM (inactive) in the assay with HT-29. Moreover, in the assay on CCRF-CEM, the GI50 was 3.22 µM (inactive).
As for `CN1CCc2cc(N)cc3c2C1Cc1ccc2c(c1-3)OCO2` (centres undefined), the GI50 in the assay on IGROV-1 was 20.5 µM (inactive); with NCI/ADR-RES it was 24.3 µM (inactive); with SF-295 it was 31.9 µM (inactive); in the assay on HOP-92, 17.7 µM (inactive); in the assay with HL-60, 28.4 µM (inactive); in the assay on NCI-H460 it was 28.9 µM (inactive). In addition, the GI50 was 27.4 µM (inactive) with RXF 393; 28.2 µM (inactive) with Hs-578T; 49.9 µM (inactive) in the assay on A498; 29.4 µM (inactive) in the assay with MCF7; 49.2 µM (inactive) in the assay on MDA-MB-231; 20.9 µM (inactive) with Malme-3M. Also, the GI50 in the assay with M14 was 30.8 µM (inactive); with SK-MEL-28 it was 27.2 µM (inactive); in the assay with SNB-75, 31.9 µM (inactive); in the assay with UACC-257, 22.5 µM (inactive); in the assay with 786-0, 26.9 µM (inactive); in the assay on HT-29, 30.7 µM (inactive). Also, in the assay with CCRF-CEM, the GI50 was 1.97 µM (inactive).

(Values after ChEMBL document CHEMBL1201862, “PubChem BioAssay data set” (2004).)
